From ChEMBL document CHEMBL1641505, “17β-HSD2 inhibitors for the treatment of osteoporosis: Identification of a promising scaffold” (Bioorg Med Chem, 2011)

Experiments:
[1] = target: T1, 17-beta-hydroxysteroid dehydrogenase type 2 (Homo sapiens) (UniProt P37059); assay: Inhibition of [3H]E2 binding to human placental 17beta-HSD2 at 1 uM after 20 mins
T1 sequence (whole entry): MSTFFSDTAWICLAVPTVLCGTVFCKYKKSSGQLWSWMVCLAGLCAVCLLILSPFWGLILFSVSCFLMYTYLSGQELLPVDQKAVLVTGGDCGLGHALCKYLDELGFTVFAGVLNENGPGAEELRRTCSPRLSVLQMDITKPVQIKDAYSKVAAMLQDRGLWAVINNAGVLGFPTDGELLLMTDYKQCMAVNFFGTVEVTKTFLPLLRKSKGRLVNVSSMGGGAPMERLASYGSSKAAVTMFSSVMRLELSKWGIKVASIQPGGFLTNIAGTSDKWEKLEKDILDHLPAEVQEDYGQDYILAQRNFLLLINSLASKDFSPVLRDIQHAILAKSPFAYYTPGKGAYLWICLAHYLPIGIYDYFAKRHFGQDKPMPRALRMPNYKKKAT

[2] = target: T2, 17-beta-hydroxysteroid dehydrogenase type 1 (Homo sapiens) (UniProt P14061); assay: Inhibition of [3H]E1 binding to human placental 17beta-HSD1 at 1 uM after 20 mins
T2 sequence (whole entry): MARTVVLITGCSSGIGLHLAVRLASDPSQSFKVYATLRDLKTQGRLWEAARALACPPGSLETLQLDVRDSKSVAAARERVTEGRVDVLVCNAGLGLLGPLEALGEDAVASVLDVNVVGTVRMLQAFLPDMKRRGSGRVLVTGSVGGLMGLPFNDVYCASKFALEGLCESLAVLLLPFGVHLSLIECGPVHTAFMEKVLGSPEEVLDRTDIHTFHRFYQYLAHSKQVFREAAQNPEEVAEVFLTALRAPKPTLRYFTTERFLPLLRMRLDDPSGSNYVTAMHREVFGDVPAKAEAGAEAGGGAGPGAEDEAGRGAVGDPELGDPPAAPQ

[3] = target: T3, 17-beta-hydroxysteroid dehydrogenase type 1 (Homo sapiens, UniProt P14061); assay: Inhibition of [3H]E1 binding to human placental 17beta-HSD1 after 20 mins
T3 sequence (P14061 whole entry): T2 sequence (whole entry)

[4] = target: T4, 17-beta-hydroxysteroid dehydrogenase type 2 (Homo sapiens, UniProt P37059); assay: Inhibition of [3H]E2 binding to human placental 17beta-HSD2 after 20 mins
T4 sequence (P37059 whole entry): T1 sequence (whole entry)

Homo sapiens = species on record: Homo sapiens; assay: Selectivity ratio of IC50 for human placental 17beta-HSD1 to IC50 for human placental 17beta-HSD2
[5] = target: T5, Estrogen receptor (Homo sapiens) (UniProt P03372); assay: Displacement of [3H]E2 from human recombinant ERalpha by liquid scintillation counting relative to estradiol
T5 sequence (whole entry): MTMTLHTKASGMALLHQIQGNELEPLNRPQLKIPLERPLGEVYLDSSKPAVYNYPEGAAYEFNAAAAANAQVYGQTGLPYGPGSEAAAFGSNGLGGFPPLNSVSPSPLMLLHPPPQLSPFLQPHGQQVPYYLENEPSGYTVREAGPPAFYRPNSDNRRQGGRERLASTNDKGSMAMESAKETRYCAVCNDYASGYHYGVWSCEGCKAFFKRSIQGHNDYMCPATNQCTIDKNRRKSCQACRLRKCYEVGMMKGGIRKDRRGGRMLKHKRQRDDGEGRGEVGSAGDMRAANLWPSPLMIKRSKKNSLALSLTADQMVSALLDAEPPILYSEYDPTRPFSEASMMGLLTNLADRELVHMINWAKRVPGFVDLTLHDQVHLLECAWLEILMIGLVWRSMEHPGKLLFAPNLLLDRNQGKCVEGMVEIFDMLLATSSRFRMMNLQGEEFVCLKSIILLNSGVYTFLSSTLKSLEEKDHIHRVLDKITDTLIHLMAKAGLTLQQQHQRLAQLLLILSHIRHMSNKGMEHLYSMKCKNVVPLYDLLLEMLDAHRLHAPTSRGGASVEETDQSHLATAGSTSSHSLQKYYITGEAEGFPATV

[6] = target: Estrogen receptor beta (Homo sapiens) (UniProt Q92731); assay: Displacement of [3H]E2 from human recombinant ERbeta by liquid scintillation counting relative to estradiol
Chain of Estrogen receptor beta (Homo sapiens) (Q92731 whole entry): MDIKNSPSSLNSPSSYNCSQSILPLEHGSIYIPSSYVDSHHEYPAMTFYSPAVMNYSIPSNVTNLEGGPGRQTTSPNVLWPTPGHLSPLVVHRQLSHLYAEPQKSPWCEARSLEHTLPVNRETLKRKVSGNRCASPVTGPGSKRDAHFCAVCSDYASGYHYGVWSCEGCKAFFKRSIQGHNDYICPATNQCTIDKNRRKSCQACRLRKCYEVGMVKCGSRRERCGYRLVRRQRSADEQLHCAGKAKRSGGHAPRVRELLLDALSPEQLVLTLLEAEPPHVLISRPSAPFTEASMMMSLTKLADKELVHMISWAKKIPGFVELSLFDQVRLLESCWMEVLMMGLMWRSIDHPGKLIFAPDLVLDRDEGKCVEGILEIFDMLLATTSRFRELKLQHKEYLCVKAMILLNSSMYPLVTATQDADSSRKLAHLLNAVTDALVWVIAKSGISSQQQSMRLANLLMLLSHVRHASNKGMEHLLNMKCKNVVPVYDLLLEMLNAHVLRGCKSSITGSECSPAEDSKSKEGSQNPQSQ

Compound | inhibition [1] [%] | inhibition [2] [%] | also measured
Oc1cccc(-c2ccc3c(O)cccc3c2)c1 | 32 |  | 
CC(=O)Nc1cccc(-c2ccc(CO)cc2)c1 | < 10 | < 10 | 
Oc1ccc(-c2ccc3c(O)cccc3c2)cc1 | 74 | 20 | Activity [5]: 5%; Activity [6]: 5%; Ratio IC50 (Homo sapiens): 8
N#Cc1ccc(-c2ccc3c(O)cccc3c2)cc1 | 12 | 16 | 
CNC(=O)c1cccc(-c2ccc3c(O)cccc3c2)c1 | 43 | < 10 | 
COc1ccncc1-c1ccc2c(O)cccc2c1 | < 10 | < 10 | 
COc1ccc(CC(=O)N(C)c2cccc(-c3ccc(OC)cc3)c2)cc1 | 10 | 25 | 
CC(=O)c1ccc(-c2ccc3c(O)cccc3c2)cc1 | < 10 | 16 | 
CS(=O)(=O)Nc1ccc(-c2ccc(CO)cc2)cc1 | < 10 | < 10 | 
O=C(Nc1cccc(-c2ccc(O)cc2)c1)c1ccccc1 | < 10 | < 10 | 
Oc1cccc2cc(-c3ccncc3)ccc12 | 26 | < 10 | 
CC(=O)Nc1cccc(-c2ccc(O)cc2)c1 | < 10 | < 10 | 
COc1ccc(-c2cccc(N(C)C(=O)c3cccc(OC)c3)c2)cc1 | 13 | 16 | 
Oc1ccc2cc(-c3ccccc3)ccc2c1 | 17 | 44 | 
Oc1cccc2cc(-c3ccoc3)ccc12 | 13 | < 10 | 
CS(=O)(=O)Nc1ccc(-c2ccc(O)cc2)cc1 | < 10 | < 10 | 
COc1ccc(CC(=O)N(C)c2cccc(-c3ccc(CO)cc3)c2)cc1 | < 10 | < 10 | 
Oc1cccc2cc(-c3cncnc3)ccc12 | < 10 | < 10 | 
COc1ccc(C(=O)N(C)c2cccc(-c3ccc(OC)cc3)c2)cc1 | 20 | < 10 | 
Cc1cccc(S(=O)(=O)Nc2ccc(-c3ccc(CO)cc3)cc2)c1 | 12 | < 10 | 
Oc1ccc2cc(-c3ccccc3O)ccc2c1 | < 10 |  | 
OCc1ccc(-c2ccc3c(O)cccc3c2)cc1 | 31 | 14 | 
COc1ccc(C(=O)N(C)c2cccc(-c3ccc(CO)cc3)c2)cc1 | 14 | < 10 | 
O=[N+]([O-])c1ccc(-c2ccc3c(O)cccc3c2)cc1 | 13 | 15 | 
Oc1cccc2cc(-c3ccc(F)cc3)ccc12 | < 10 | < 10 | 
Oc1cccc(-c2ccc3cc(O)ccc3c2)c1 |  | 100 | Ratio IC50 (Homo sapiens): 0.02

Second part, led by results:

inhibition [1] [%] | inhibition [2] [%] | Compound | also measured
14 | < 10 | Cc1cccc(S(=O)(=O)Nc2ccc(-c3ccc(O)cc3)cc2)c1 | 
64 | 12 | CC(=O)Nc1cccc(-c2ccc3c(O)cccc3c2)c1 | IC50 [3]: 8.52 µM; IC50 [4]: 0.696 µM; Ratio IC50 (Homo sapiens): 12
15 | < 10 | COc1cccc(C(=O)N(C)c2cccc(-c3ccc(CO)cc3)c2)c1 | 
12 |  | Oc1cccc(-c2ccc3ccccc3c2)c1 | 
13 | < 10 | CNC(=O)c1ccc(-c2ccc3c(O)cccc3c2)cc1 | 
< 10 | < 10 | COc1ccc(-c2cccc(N(C)C(=O)Cc3cccc(OC)c3)c2)cc1 | 
20 | 28 | COc1ccc(-c2ccc3c(O)cccc3c2)cc1 | 
< 10 | < 10 | CN(C(=O)c1ccccc1)c1cccc(-c2ccc(CO)cc2)c1 | 
12 | < 10 | COc1cccc(CC(=O)N(C)c2cccc(-c3ccc(CO)cc3)c2)c1 | 
16 | < 10 | O=C(O)c1ccc(-c2ccc3c(O)cccc3c2)cc1 | 
20 | < 10 | Oc1cccc2cc(-c3ccccc3)ccc12 | 
< 10 | < 10 | O=C(Nc1cccc(-c2ccc3c(O)cccc3c2)c1)c1ccccc1 | 
< 10 | < 10 | O=C(Nc1cccc(-c2ccc(CO)cc2)c1)c1ccccc1 | 
75 | 52 | CS(=O)(=O)Nc1ccc(-c2ccc3c(O)cccc3c2)cc1 | IC50 [3]: 0.614 µM; IC50 [4]: 0.6 µM; Ratio IC50 (Homo sapiens): 1
 | < 10 | CN(C(=O)Cc1cccc(O)c1)c1cccc(-c2ccc(O)cc2)c1 | 
57 | 12 | CNS(=O)(=O)c1ccc(-c2ccc3c(O)cccc3c2)cc1 | 
22 | 19 | CS(=O)(=O)Nc1cccc(-c2ccc3c(O)cccc3c2)c1 | 
46 | < 10 | CN(C(=O)c1ccccc1)c1cccc(-c2ccc(O)cc2)c1 | 
